Laboratory results reported in patent US12419952B2, “Saponin conjugate and vaccine or pharmaceutical composition comprising the same” (priority 2019, dated 2025).

Assays:
[1] = tested on: E.G7-OVA (OVA-expressing EL4 lymphoma) tumors; test: Tumor challenge: OVA vaccine with adjuvant in E.G7-OVA tumor bearing mice; format: in vivo, C57BL/6 mice; conditions: Days 7, 14; for tumor growth suppression compared with the control group (PBS): 100 μg OVA with or without 50 μg adjuvant
Procedure: Female C57BL/6 mice 6-8 weeks of age obtained from NLAC Taiwan. Mice were injected s.c. with 200 μL of 1.5*10^6 E. G7-OVA (OVA-expressing EL4 lymphoma) cells in PBS. Tumor volumes were measured at regular intervals using a caliper and calculated by the following formula: tumor volume (mm^3)=(long diameter)*(short diameter)^2*0.52. When the average tumor volume reached […] (day 7), 100 μL of 100 μg OVA in PBS with or without 50 μg compound 56, alum, Qs-21 and GPI0100 was injected s.c. around the tumor. PBS (200 μL) was used as a control.
A mouse-vaccination model was applied with an antigen OVA to evaluate anti-tumor efficacy. […] The evaluation of compound 56, and positive control groups (alum, Qs-21 and GPI-0100) anti-tumor efficacy were analyzed by caliper.

Female BALB/c mice = test: Acute toxicity with increased dose of saponin (survival, weight change, spleen and hepato somatic index); format: in vivo
Description: FIG. 8 (A) The percentage of median weight change of mice in 5 days. The values are presented as means±S.E.M. (n=5). (B) Hepato somatic index and (C) Spleen somatic index. The values are presented as means±S.E.M. (n=5). The percentage of median weight change of mice which was received increased dose of saponin adjuvant 56 was all less than 5%. The spleen somatic index and hepato somatic index in all experimental group were no change with compare to control group.
Acute toxicity was examined with increased dose of saponin 56 form 100 μg to 1000 μg. The result was presented as the number of surviving animal per group of 5 mice (Female BALB/c mice, 9 weeks) in 7 days. […] (FIG. 8)
The results represent in FIG. 8. […] The spleen somatic index and hepato somatic index in all experimental group were no change with compare to control group.

SARS-CoV-2 spike protein = test: ELISA of serum SARS-CoV-2-specific IgG after vaccination with spike protein and adjuvant; format: in vivo, C57BL/6 mice
[2] = tested on: PEK antigen (PE-E7-K3)-specific cytokine-secreting splenocytes; test: ELISpot of IFNγ and IL-2 production by splenocytes of mice vaccinated with PEK antigen plus saponin adjuvant; format: in vivo, C57BL/6 mice; conditions: 50 μg saponin + PEK 100 μg, s.c.; splenocytes one week after third dose
[3] = tested on: memory T cells (low CD62L, high CD44); test: Flow cytometric analysis of memory T cells (CD62L low, CD44 high) in splenocytes of vaccinated mice; format: in vivo, C57BL/6 mice; conditions: one week post-third dose
Procedure: C57BL/6 mice were obtained from NLAC Taiwan. Mice between 4 and 8 weeks of age were vaccinated with 100 μL via the subcutaneous (SC) route and one dose per week for three weeks. Mice was sacrificed one week after the third vaccination, serum and splenocytes were harvested.
Spleen tissue was isolated from mice and processed into single cell suspensions using PP micro centrifuge sample pestle. Splenocytes were seeding on 6 well plate at 2×10^7/2 mL, cultivation for 2 h in a CO2 incubator. After 2 h, stimulate with or without E7-peptide for 2 hours at 37° C., then treat cell with protein transport inhibitor Monensin (Invitrogen, Cat. no. 00-4505-51) and Brefeldin (Invitrogen, Cat. no. 00-4506-51) for 4 hours at 37° C. Afterward, cells were harvest then washed twice with PBS and then stained for surface CD3 (BioLegend, Cat. no. 100222), CD4 (BioLegend, Cat. no. 100540), CD8 (Invitrogen, Cat. no. 11-0081-86), CD44 (BioLegend, Cat. no. 103008), CD62L (BioLegend, Cat. no. 104412) for 30 minutes at 4° C. After washing, cells were fixed for 30 minutes at room temperature using IC fixation buffer (Invitrogen, Cat. no. 00-8222-49), then cells were washed in permeabilization buffer (Invitrogen, Cat. no. 00-8333-56) and stained with IFNγ antibody (Invitrogen, Cat. no. 48-7311-82), IL-2 antibody (Invitrogen, Cat. no. 25-7021-82) and TNFα antibody (Invitrogen, Cat. no. 48-7321-82). One point five million cells events were acquired on the Backman Coulter Gallions. Flow data were analyzed using Kaluza software (ver. 1.2). Populations were first gated on viable mononuclear cell using forward and side scatter, then gated on CD3^+/CD4^+ or CD3^+/CD8^+ T cells. Next, sub-gated CD62L^−/CD44^+ memory T cells. Subsequently, sub-gated on either CD4^+/IFNγ, CD8^+/IFNγ^+, CD4^+/IL-2^+, CD8^+/IL-2^+, CD4/TNFα^+ and CD8^+/TNFα^+ double-positive cells.
Two adhesion molecules associated with differentiating naive and activated/memory T cells are CD62L (L-selectin) and CD44 (H-CAM). […] Flow-cytometric analysis (individual mice) of T-cells as frequency of viable CD8^+ or CD4^+ splenocytes expressing IFN-γ, TNF-α, or IL-2. Cytokine positivity was determined.

PR8 virus = test: Influenza challenge: NP peptide vaccine with compound 56, then live PR8 virus infection; format: in vivo, C57BL/6 mice; conditions: NPI/II plus compound 56 (50 μg s.c. or 30 μg i.n.); two vaccinations; 110 PFU PR8
Procedure: Female C57BL/6 mice 6-8 weeks of age were immunized through either s.c. injection with 100p of vaccines or the intranasal route with 30 μl of vaccines. All vaccine liquids were freshly prepared and diluted with 0.5% Tween 20 PBS. Vaccines used for the subcutaneous injection contained immunogens NP366-374/NP311-325 peptides, alone or combined with compound 56 ([…]). Vaccines used for the i.n. route contained immunogens alone or with compound 56 (30 μg). After two times vaccination, mice were infected with 110 plaque-forming units (PFU) of live PR8 virus by intronasal.
A mouse-vaccination model was applied with an antigen […] to evaluate anti-influenza efficacy. Five mice per group were immunized two times with compound 56 and NPI/II. After two times vaccination, mice were infected with 110 plaque-forming units (PFU) of live PR8 virus by intronasal.

## CC1O[C@@H](OC(=O)[C@]23CCC(C)(C)CC2C2=CCC4C5(C)CC[C@H](O[C@@H]6OC(C(=O)NCCCCCCCCc7ccc(Oc8ccccc8)cc7)[C@@H](O)C(O)C6O)C(C)(C=O)C5CCC4(C)C2(C)CC3O)C(O[C@@H]2OC(C)[C@H](O[C@@H]3OC[C@@H](O)C(O)C3O)C(O)C2O)C(O)[C@H]1O (stereo partly drawn) [Compound 56, 3-O—(N-(8-(4-Phenoxyhenyl)octyl)-β-D-glucopyranosyluronamide)-28-O-(β-D-xylopyranosyl-(1→4)-α-L-rhamnopyranosyl-(1→2)-β-D-fucopyranosyl) quillaic ester]
[1]; 100 μg OVA + 50 μg adjuvant
  survival rate of tumor bearing mice: highest survival rate
[1]
  tumor growth suppression compared with the control group (PBS): significant tumor growth suppression effect
Female BALB/c mice; 100 μg to 1000 μg, 7 days
  abnormality on activity and diet behavior: no obvious abnormality
  survival in acute toxicity test: all of the mice were survive
Female BALB/c mice; Dose 100 μg, 7 days
  number of surviving animal per group of 5 mice: 5/5
Female BALB/c mice; Dose 200 μg, 7 days
  number of surviving animal per group of 5 mice: 5/5
Female BALB/c mice; Dose 500 μg, 7 days
  number of surviving animal per group of 5 mice: 5/5
Female BALB/c mice; Dose 1000 μg, 7 days
  number of surviving animal per group of 5 mice: 5/5
Female BALB/c mice; all experimental groups, n=5
  hepato somatic index compared to control group: no change
  spleen somatic index compared to control group: no change
Female BALB/c mice; increased dose of saponin adjuvant, 5 days, n=5
  percentage of median weight change of mice: less than 5%
SARS-CoV-2 spike protein; SARS-CoV-2 (2 μg) + Compound 56 (50 μg) vs SARS-CoV-2 (10 μg) + Alum (10 μg), only 20% of antigen
  increase of antibody titer: 1000 fold
SARS-CoV-2 spike protein; SARS-CoV-2 (2 μg) + Compound 56 (50 μg), s.c.
  level of SARS-CoV-2-specific IgG antibody production: highest level of antibody production
[2]
  inducing IL-2 (ELISpot): moderate
  secretion of cytokines IFNγ (ELISpot) compared with GPI0100: three to four times more
[3]
  cytokine positive CD4+ T-cells: no cytokine positive CD4^+ T-cells were detected
  frequency of CD8+ T-cells positive for IFN-γ or TNF-α as compared to mice vaccinated with GPI-0100: higher frequency
PR8 virus
  survival rate following PR8 infection compared to NP I/II peptides alone: higher survival rate

## CC1O[C@@H](OC(=O)[C@]23CCC(C)(C)CC2C2=CCC4C5(C)CC[C@H](O[C@@H]6OC(C(=O)NCCCCCCCCc7ccc(N8CCOCC8)cc7)[C@@H](O)C(O)C6O)C(C)(C=O)C5CCC4(C)[C@]2(C)CC3O)C(O[C@@H]2OC(C)[C@H](O[C@@H]3OC[C@@H](O)C(O)C3O)C(O)C2O)C(O)[C@H]1O (stereo partly drawn) [Compound 62, 3-O—(N-(8-(4-morpholinophen-1-yl)octyl)-β-D-glucopyranosyluronamide)-28-O-(β-D-xylopyranosyl-(1→4)-α-L-rhamnopyranosyl-(1-2)-β-D-fucopyranosyl) quillaic ester]
[3]
  cytokine positive CD4+ T-cells: no cytokine positive CD4^+ T-cells were detected
  frequency of CD8+ T-cells positive for IFN-γ or TNF-α as compared to mice vaccinated with GPI-0100: higher frequency

## CC1O[C@@H](OC(=O)[C@]23CCC(C)(C)CC2C2=CCC4C5(C)CC[C@H](O[C@@H]6OC(C(=O)NCCCCCCCCc7ccc(Oc8ccccc8)cc7)[C@@H](O)C(O)C6O)C(C)(C=O)C5CCC4(C)[C@]2(C)CC3O)C(O[C@@H]2OC(C)[C@H](O[C@@H]3OC[C@@H](O)C(O)C3O)C(O[C@@H]3OC(CO)[C@@H](O)C(O)C3O)C2O)C(O)[C@H]1O (stereo partly drawn) [Compound 79, 3-O—(N-(8-(4-Phenoxyhenyl)octyl)-β-D-glucopyranosyluronamide)-28-O-(β-D-glucopyranosyl-(1→3)-(β-D-xylopyranosyl-(1-4))-α-L-rhamnopyranosyl-(1→2)-β-D-fucopyranosyl) quillaic ester]
[2]
  inducing IL-2 (ELISpot): moderate
  secretion of cytokines IFNγ (ELISpot) compared with GPI0100: three to four times more
[3]
  cytokine positive CD4+ T-cells: no cytokine positive CD4^+ T-cells were detected
  frequency of CD8+ T-cells positive for IFN-γ or TNF-α as compared to mice vaccinated with GPI-0100: higher frequency

## Alum [reference compound]
[1]
  tumor growth suppression compared with the control group (PBS): slight tumor growth suppression at first

## OVA: antigen OVA used in the tumor vaccination model
[1]
  tumor growth suppression compared with the control group (PBS): slight tumor growth suppression at first

## Qs-21 [reference compound]
[1]
  tumor growth suppression compared with the control group (PBS): significant tumor growth suppression effect
